In US20130153815A1, “POLYMER COMPRISING A DYE, NANOPARTICLE COMPRISING THE POLYMER, AND METHODS OF PREPARING THE SAME” (Agency for Science, Technology and Research, priority 2011, published 2013) one finds absorbance band and emission highest peak data, which are given here for one compound.

Data set [1] can be described thus: UV absorption in methanol. The conditions noted are these: methanol solution, 0.1 mM, 25° C. It is filed as physicochemical. As to the method: (§1) The absorbance bands of these spectra still remain at 820 nm after chemical modification and hybridization with polymers. The colloidal stability and aggregation were tested by using UV absorbance. Dye-Pol 1 and Dye-Pol 2 were mixed with phosphate buffered saline (PBS) buffer. The absorbance bands remain the same after 3 days (FIG. 7). Similar phenomenon happened to MNP 1 and MNP 2 (FIG. 8). […] FIG. 9 and FIG. 10 show the emission spectra in the near-infrared region (800-1500 nm), excited at 785 nm. The emission spectrum of IR820dye-NH2 is 1002 nm, slightly blue-shifted from 1076 nm (IR-820). Dye-Pol 1 and Dye-Pol 2 show the emission highest peak at 956 nm while the emission of MNP 1 and MNP 2 are 864 and 866 nm, respectively. Dye-Pol 1 and Dye-Pol 2 absorb at 820 nm and emit at 956 nm. They display a large Stokes shift (136 nm).

Data set [2] can be described thus: NIR photoluminescence emission spectra excited with a 785 nm laser diode. It is filed as physicochemical. The following applies: near-infrared region (800-1500 nm), excited at 785 nm. As to the method:
as §1

Turning to `CC1(C)C(=CC=C2CCCC(C=CC3=[N+](CCCCS(=O)(=O)[O-])c4ccc5ccccc5c4C3(C)C)=C2Cl)N(CCCCS(=O)(=O)[O-])c2ccc3ccccc3c21.[Na+]` [IR-820], the absorbance band in data set [1] was 820 nm. In data set [2], this compound showed an emission highest peak of 1076 nm.
